From the NIST ThermoML archive (doi:10.1016/j.jct.2013.10.038) come the findings set out here.

In general, mass density refers to the mass of a sample divided by its volume.

Series [1] is described as follows: activity coefficient (dimensionless); of the first substance listed, at infinite dilution; xn = mol fraction of the nth substance listed. The note with it: 101 kPa, Liquid, Chromatography, x1 = 0.
The conditions of series [2]: 101.33 kPa, Liquid, Pycnometric method.

± gives the expanded uncertainty stated by the source.

As for `CCCO` [propan-1-ol] + CCCCCCn1cc[n+](C)c1.O=C([O-])C(F)(F)F, the activity coefficient in series [1] (313.15 K) worked out at 0.24 ± 0.04; in series [1] (323.15 K), 0.25 ± 0.04; in series [1] (333.15 K), 0.26 ± 0.04; in series [1] (343.15 K), 0.27 ± 0.04; in series [1] (353.15 K), 0.29 ± 0.04; in series [1] (363.15 K), 0.31 ± 0.04.
In the case of `CC1CCCCC1` [methylcyclohexane] + CCCCCCn1cc[n+](C)c1.O=C([O-])C(F)(F)F, the activity coefficient in series [1] (323.15 K) was 19.8 ± 2.1.
Turning to `CC(C)CO` [2-methyl-1-propanol] + CCCCCCn1cc[n+](C)c1.O=C([O-])C(F)(F)F, the activity coefficient is 0.29 ± 0.04 in series [1] (323.15 K); 0.3 ± 0.04 in series [1] (333.15 K); 0.3 ± 0.04 in series [1] (343.15 K); 0.31 ± 0.04 in series [1] (353.15 K); 0.31 ± 0.04 in series [1] (363.15 K).
`CCO` [ethanol] + CCCCCCn1cc[n+](C)c1.O=C([O-])C(F)(F)F: the activity coefficient was 0.21 ± 0.03 in series [1] (303.15 K); 0.22 ± 0.03 in series [1] (313.15 K); 0.22 ± 0.03 in series [1] (323.15 K); 0.23 ± 0.04 in series [1] (333.15 K); 0.24 ± 0.04 in series [1] (343.15 K); 0.26 ± 0.04 in series [1] (353.15 K). Moreover, in series [1] (363.15 K), the activity coefficient was found to be 0.27 ± 0.04.
On to `ClCCCl` [1,2-dichloroethane] + CCCCCCn1cc[n+](C)c1.O=C([O-])C(F)(F)F, for which the activity coefficient in series [1] (303.15 K) came to 0.62 ± 0.07; in series [1] (313.15 K), 0.75 ± 0.08; in series [1] (323.15 K), 0.9 ± 0.09; in series [1] (333.15 K), 1.1 ± 0.11; in series [1] (343.15 K), 1.26 ± 0.13; in series [1] (353.15 K) it was 1.62 ± 0.17. Further, the activity coefficient in series [1] (363.15 K) came to 1.67 ± 0.17.
As for `c1ccccc1` [benzene] + CCCCCCn1cc[n+](C)c1.O=C([O-])C(F)(F)F, the activity coefficient came out at 2.05 ± 0.22 in series [1] (303.15 K); 2.07 ± 0.22 in series [1] (313.15 K); 2.09 ± 0.22 in series [1] (323.15 K); 2.1 ± 0.22 in series [1] (333.15 K); 2.12 ± 0.22 in series [1] (343.15 K); 2.13 ± 0.22 in series [1] (353.15 K). Besides, the activity coefficient in series [1] (363.15 K) was 2.14 ± 0.22.
Consider `CCCCCCC` [heptane] + CCCCCCn1cc[n+](C)c1.O=C([O-])C(F)(F)F, for which the activity coefficient in series [1] (323.15 K) was 27 ± 2.8.
As to `CCCCCCn1cc[n+](C)c1.O=C([O-])C(F)(F)F` [1-hexyl-3-methylimidazolium trifluoroacetate], the mass density in series [2] (293.15 K) was found to be 1153.5 ± 1.1 kg/m3; in series [2] (303.15 K), 1146.6 ± 1.1 kg/m3; in series [2] (313.15 K), 1140.7 ± 1.1 kg/m3; in series [2] (323.15 K), 1134.4 ± 1.1 kg/m3; in series [2] (333.15 K) it was 1127.8 ± 1.1 kg/m3; in series [2] (343.15 K), 1121.6 ± 1.1 kg/m3.
Take `ClC(Cl)(Cl)Cl` [tetrachloromethane] + CCCCCCn1cc[n+](C)c1.O=C([O-])C(F)(F)F: the activity coefficient in series [1] (303.15 K) is 0.62 ± 0.07; in series [1] (313.15 K), 0.7 ± 0.07; in series [1] (323.15 K) it was 0.8 ± 0.08; in series [1] (333.15 K) it was 0.91 ± 0.09; in series [1] (343.15 K), 1.02 ± 0.1; in series [1] (353.15 K), 1.19 ± 0.12. Further, the activity coefficient in series [1] (363.15 K) turned out to be 1.32 ± 0.14.
Regarding `Brc1ccccc1` [bromobenzene] + CCCCCCn1cc[n+](C)c1.O=C([O-])C(F)(F)F, the activity coefficient came to 2.18 ± 0.23 in series [1] (303.15 K); 2.2 ± 0.23 in series [1] (313.15 K); 2.24 ± 0.24 in series [1] (323.15 K); 2.29 ± 0.24 in series [1] (333.15 K); 2.32 ± 0.24 in series [1] (343.15 K); 2.36 ± 0.25 in series [1] (353.15 K). Further, the activity coefficient in series [1] (363.15 K) stood at 2.41 ± 0.25.
With `CO` [methanol] + CCCCCCn1cc[n+](C)c1.O=C([O-])C(F)(F)F, the activity coefficient in series [1] (303.15 K) was 0.1 ± 0.03; in series [1] (313.15 K), 0.11 ± 0.03; in series [1] (323.15 K), 0.12 ± 0.03; in series [1] (333.15 K), 0.13 ± 0.03; in series [1] (343.15 K), 0.13 ± 0.03; in series [1] (353.15 K), 0.16 ± 0.03. In addition, in series [1] (363.15 K), the activity coefficient came out at 0.16 ± 0.03.
For the molecule `CCOC(C)=O` [ethyl acetate] + CCCCCCn1cc[n+](C)c1.O=C([O-])C(F)(F)F, the activity coefficient was 2.64 ± 0.28 in series [1] (303.15 K); 2.8 ± 0.29 in series [1] (313.15 K); 2.91 ± 0.31 in series [1] (323.15 K); 3.02 ± 0.32 in series [1] (333.15 K); 3.12 ± 0.33 in series [1] (343.15 K); 3.15 ± 0.33 in series [1] (353.15 K). Also, in series [1] (363.15 K), the activity coefficient was determined as 3.44 ± 0.36.
Turning to `C=Cc1ccccc1` [styrene] + CCCCCCn1cc[n+](C)c1.O=C([O-])C(F)(F)F, the activity coefficient was 2.28 ± 0.24 in series [1] (303.15 K); 2.39 ± 0.25 in series [1] (313.15 K); 2.46 ± 0.26 in series [1] (323.15 K); 2.53 ± 0.27 in series [1] (333.15 K); 2.61 ± 0.27 in series [1] (343.15 K); 2.68 ± 0.28 in series [1] (353.15 K). The activity coefficient in series [1] (363.15 K) was 2.73 ± 0.29.
On to `CCCCCC` [hexane] + CCCCCCn1cc[n+](C)c1.O=C([O-])C(F)(F)F, for which the activity coefficient in series [1] (323.15 K) came to 29 ± 3.
For `ClC(Cl)Cl` [trichloromethane] + CCCCCCn1cc[n+](C)c1.O=C([O-])C(F)(F)F, the activity coefficient in series [1] (303.15 K) is 0.08 ± 0.03; in series [1] (313.15 K) it was 0.12 ± 0.03; in series [1] (323.15 K), 0.22 ± 0.03; in series [1] (333.15 K) it was 0.3 ± 0.04; in series [1] (343.15 K) it was 0.45 ± 0.05; in series [1] (353.15 K), 0.68 ± 0.07. Besides, the activity coefficient in series [1] (363.15 K) is 1.06 ± 0.11.
For the molecule `Clc1ccccc1` [chlorobenzene] + CCCCCCn1cc[n+](C)c1.O=C([O-])C(F)(F)F, the activity coefficient in series [1] (303.15 K) is 2.27 ± 0.24; in series [1] (313.15 K), 2.26 ± 0.24; in series [1] (323.15 K) it was 2.24 ± 0.24; in series [1] (333.15 K), 2.22 ± 0.23; in series [1] (343.15 K), 2.2 ± 0.23; in series [1] (353.15 K) it was 2.2 ± 0.23. Moreover, in series [1] (363.15 K), the activity coefficient came to 2.2 ± 0.23.
Consider `C1CCCCC1` [cyclohexane] + CCCCCCn1cc[n+](C)c1.O=C([O-])C(F)(F)F, for which the activity coefficient in series [1] (323.15 K) was 16.9 ± 1.8.
Take `C1=CCCCC1` [cyclohexene] + CCCCCCn1cc[n+](C)c1.O=C([O-])C(F)(F)F: the activity coefficient in series [1] (323.15 K) was 9.6 ± 1.
As for `CC(C)O` [propan-2-ol] + CCCCCCn1cc[n+](C)c1.O=C([O-])C(F)(F)F, the activity coefficient in series [1] (303.15 K) was determined as 0.34 ± 0.04; in series [1] (313.15 K) it was 0.35 ± 0.04; in series [1] (323.15 K), 0.36 ± 0.04; in series [1] (333.15 K), 0.38 ± 0.05; in series [1] (343.15 K) it was 0.39 ± 0.05; in series [1] (353.15 K), 0.4 ± 0.05. Also, in series [1] (363.15 K), the activity coefficient was 0.42 ± 0.05.
For `CC(C)=O` [acetone] + CCCCCCn1cc[n+](C)c1.O=C([O-])C(F)(F)F, the activity coefficient in series [1] (303.15 K) stood at 1.69 ± 0.18; in series [1] (313.15 K) it was 1.69 ± 0.18; in series [1] (323.15 K), 1.68 ± 0.18; in series [1] (333.15 K), 1.68 ± 0.18; in series [1] (343.15 K) it was 1.67 ± 0.17; in series [1] (353.15 K) it was 1.67 ± 0.17. For the same molecule, in series [1] (363.15 K), the activity coefficient came to 1.67 ± 0.17.
